Values of other authors as cited in PubChem BioAssay AID1259409 (Chemical Carcinogenesis Research Information System (CCRIS), 2018).

System: rodent chemically induced tumor inhibition, incidence and multiplicity
Assay: CCRIS tumor inhibitor studies
Settings: Promoter: NONE USED

For `CCCN(CCC)c1c([N+](=O)[O-])cc(C(F)(F)F)cc1[N+](=O)[O-]`, the “tumour outcome (control, treated, inhibition, significance)” value (Carcinogen: BENZO[A]PYRENE, 50-32-8, Dose [Inhibitor]: 1000 PPM IN DIET CONTAINING 5% CORN OIL BEGINNING 1 WK PRIOR TO 1ST CARCINOGEN TREATMENT AND CONTINUING FOR 18 WK (STUDY, Route [Inhibitor]: ORAL, Species: MOUSE, Strain/Sex: STRAIN-A/FEMALE, Target Tissue: Type of Lesion: FORESTOMACH: SQUAMOUS CELL PAPILLOMA, Dose [Carcinogen]: 3 MG IN 0.25 ML CORN OIL AT 10 AND 12 WK OF AGE) is given as 100%, 84%, 16%, not significant, the “tumour outcome (control, treated, inhibition, significance)” value (Carcinogen: BENZO[A]PYRENE, 50-32-8, Dose [Inhibitor]: 1000 PPM IN DIET CONTAINING 5% CORN OIL BEGINNING 1 WK PRIOR TO 1ST CARCINOGEN TREATMENT AND CONTINUING FOR 18 WK (STUDY, Route [Inhibitor]: ORAL, Species: MOUSE, Strain/Sex: STRAIN-A/FEMALE, Target Tissue: Type of Lesion: LUNG: ADENOMA, Dose [Carcinogen]: 3 MG IN 0.25 ML CORN OIL AT 10 AND 12 WK OF AGE) is given as 97%, 96%, 1%, not significant and the “tumour outcome (control, treated, inhibition, significance)” value (Carcinogen: BENZO[A]PYRENE, 50-32-8, Dose [Inhibitor]: 1500 PPM IN DIET CONTAINING 5% CORN OIL BEGINNING 1 DAY POST LAST CARCINOGEN DOSE AND CONTINUING FOR 12 WK (STUDY DURATI, Route [Inhibitor]: ORAL, Species: MOUSE, Strain/Sex: STRAIN-A/FEMALE, Target Tissue: Type of Lesion: LUNG: ADENOMA, Dose [Carcinogen]: 3 MG IN 0.25 ML CORN OIL AT 6 AND 8 WK OF AGE) is given as 80%, 32%, 60%, not significant. For the same compound, the “tumour outcome (control, treated, inhibition, significance)” value (Carcinogen: BENZO[A]PYRENE, 50-32-8, Dose [Inhibitor]: 1500 PPM IN DIET CONTAINING 5% CORN OIL BEGINNING 1 WK POST LAST CARCINOGEN DOSE AND CONTINUING FOR 12 WK (STUDY DURATIO, Route [Inhibitor]: ORAL, Species: MOUSE, Strain/Sex: STRAIN-A/FEMALE, Target Tissue: Type of Lesion: FORESTOMACH: SQUAMOUS CELL PAPILLOMA, Dose [Carcinogen]: 3 MG IN 0.25 ML CORN OIL AT 6 AND 8 WK OF AGE) was 100%, 88%, 12%, not significant, the “tumour outcome (control, treated, inhibition, significance)” value (Carcinogen: BENZO[A]PYRENE, 50-32-8, Dose [Inhibitor]: 1500 PPM IN DIET CONTAINING 5% CORN OIL BEGINNING 4 D POST LAST CARCINOGEN DOSE AND CONTINUING FOR 12 WK (STUDY DURATION, Route [Inhibitor]: ORAL, Species: MOUSE, Strain/Sex: STRAIN-A/FEMALE, Target Tissue: Type of Lesion: FORESTOMACH: SQUAMOUS CELL PAPILLOMA, Dose [Carcinogen]: 3 MG IN 0.25 ML CORN OIL AT 6 AND 8 WK OF AGE) was 92%, 80%, 13%, not significant and the “tumour outcome (control, treated, inhibition, significance)” value (Carcinogen: BENZO[A]PYRENE, 50-32-8, Dose [Inhibitor]: 1500 PPM IN DIET CONTAINING 5% CORN OIL BEGINNING 4 D POST LAST CARCINOGEN DOSE AND CONTINUING FOR 12 WK (STUDY DURATION, Route [Inhibitor]: ORAL, Species: MOUSE, Strain/Sex: STRAIN-A/FEMALE, Target Tissue: Type of Lesion: LUNG: ADENOMA, Dose [Carcinogen]: 3 MG IN 0.25 ML CORN OIL AT 6 AND 8 WK OF AGE) was 72%, 40%, 44%, not significant. For the same compound, the “tumour outcome (control, treated, inhibition, significance)” value (Carcinogen: BENZO[A]PYRENE, 50-32-8, Dose [Inhibitor]: 1500 PPM IN DIET CONTAINING 5% CORN OIL BEGINNING 7 D POST LAST CARCINOGEN DOSE AND CONTINUING FOR 12 WK (STUDY DURATION, Route [Inhibitor]: ORAL, Species: MOUSE, Strain/Sex: STRAIN-A/FEMALE, Target Tissue: Type of Lesion: FORESTOMACH: SQUAMOUS CELL PAPILLOMA, Dose [Carcinogen]: 3 MG IN 0.25 ML CORN OIL AT 6 AND 8 WK OF AGE) was 100%, 92%, 8%, not significant, the “tumour outcome (control, treated, inhibition, significance)” value (Carcinogen: BENZO[A]PYRENE, 50-32-8, Dose [Inhibitor]: 1500 PPM IN DIET CONTAINING 5% CORN OIL BEGINNING 7 D POST LAST CARCINOGEN DOSE AND CONTINUING FOR 12 WK (STUDY DURATION, Route [Inhibitor]: ORAL, Species: MOUSE, Strain/Sex: STRAIN-A/FEMALE, Target Tissue: Type of Lesion: LUNG: ADENOMA, Dose [Carcinogen]: 3 MG IN 0.25 ML CORN OIL AT 6 AND 8 WK OF AGE) was 72%, 60%, 17%, not significant and the “tumour outcome (control, treated, inhibition, significance)” value (Carcinogen: BENZO[A]PYRENE, 50-32-8, Dose [Inhibitor]: 1500 PPM IN DIET CONTAINING 5% CORN OIL BEGINNING ON DAY OF LAST CARCINOGEN DOSE AND CONTINUING FOR 12 WK (STUDY DURATIO, Route [Inhibitor]: ORAL, Species: MOUSE, Strain/Sex: STRAIN-A/FEMALE, Target Tissue: Type of Lesion: FORESTOMACH: SQUAMOUS CELL PAPILLOMA, Dose [Carcinogen]: 3 MG IN 0.25 ML CORN OIL AT 6 AND 8 WK OF AGE) was 88%, 100%, -14%, not significant. For the same compound, the “tumour outcome (control, treated, inhibition, significance)” value (Carcinogen: BENZO[A]PYRENE, 50-32-8, Dose [Inhibitor]: 1500 PPM IN DIET CONTAINING 5% CORN OIL BEGINNING ON DAY OF LAST CARCINOGEN DOSE AND CONTINUING FOR 12 WK (STUDY DURATIO, Route [Inhibitor]: ORAL, Species: MOUSE, Strain/Sex: STRAIN-A/FEMALE, Target Tissue: Type of Lesion: LUNG: ADENOMA, Dose [Carcinogen]: 3 MG IN 0.25 ML CORN OIL AT 6 AND 8 WK OF AGE) was 76%, 52%, 32%, not significant, the “tumour outcome (control, treated, inhibition, significance)” value (Carcinogen: BENZO[A]PYRENE, 50-32-8, Dose [Inhibitor]: 2000 PPM IN DIET CONTAINING 5% CORN OIL BEGINNING 1 WK PRIOR TO 1ST CARCINOGEN TREATMENT AND CONTINUING FOR 18 WK (STUDY, Route [Inhibitor]: ORAL, Species: MOUSE, Strain/Sex: STRAIN-A/FEMALE, Target Tissue: Type of Lesion: FORESTOMACH: SQUAMOUS CELL PAPILLOMA, Dose [Carcinogen]: 3 MG IN 0.25 ML CORN OIL AT 10 AND 12 WK OF AGE) was 100%, 63%, 37%, not calculated and the “tumour outcome (control, treated, inhibition, significance)” value (Carcinogen: BENZO[A]PYRENE, 50-32-8, Dose [Inhibitor]: 2000 PPM IN DIET CONTAINING 5% CORN OIL BEGINNING 1 WK PRIOR TO 1ST CARCINOGEN TREATMENT AND CONTINUING FOR 18 WK (STUDY, Route [Inhibitor]: ORAL, Species: MOUSE, Strain/Sex: STRAIN-A/FEMALE, Target Tissue: Type of Lesion: LUNG: ADENOMA, Dose [Carcinogen]: 3 MG IN 0.25 ML CORN OIL AT 10 AND 12 WK OF AGE) was 97%, 74%, 24%, not calculated.

In the case of `[Mo].[Na+].[Na+].[O-2].[O-2].[O-2].[O-2]`, the “tumour outcome (control, treated, inhibition, significance)” value (Carcinogen: N-METHYL-N-BENZYLNITROSAMINE, 937-40-6, Dose [Inhibitor]: 0.32 (BASAL MOLYBDENUM LEVEL), 2 PPM (HIGH MOLYBDENUM LEVEL) IN DIET BEGINNING 4 WK PRIOR TO CARCINOGEN DOSE AND CONTINU, Route [Inhibitor]: ORAL, Species: RAT, Strain/Sex: F344/MALE, Target Tissue: Type of Lesion: ESOPHAGUS: CARCINOMA, Dose [Carcinogen]: 2.5 MG/KG IN 0.2 ML OLIVE OIL 1/WK FOR 20 WK) is given as 30/41 (73%), 20/45 (44%), 40%, p<0.01 and the “tumour outcome (control, treated, inhibition, significance)” value (Carcinogen: N-METHYL-N-NITROSOUREA, 684-93-5, Dose [Inhibitor]: 20 PPM IN DRINKING WATER CONCURRENTLY WITH THE CARCINOGEN (STUDY DURATION: 56 WK), Route [Inhibitor]: ORAL, Species: RAT, Strain/Sex: BD6/MALE, Target Tissue: Type of Lesion: INTESTINE: ADENOCARCINOMA, Dose [Carcinogen]: 25 MG/KG 2/WK FOR 15 WK) is given as 6/20 (30%), 1/14 (7%), 77%, p>0.05.

In the case of `CN1CCN(CCCN2c3ccccc3Sc3ccc(C(F)(F)F)cc32)CC1`, the “tumour outcome (control, treated, inhibition, significance)” value (Carcinogen: AZOXYMETHANE, 25843-45-2, Dose [Inhibitor]: 0, 15 MG/KG BW IN OLIVE OIL 1/2 D FOR 35 WK BEGINNING WITH START OF CARCINOGEN TREATMENT (STUDY DURATION: 35 WK), Route [Inhibitor]: SUBCUTANEOUS, Species: RAT, Strain/Sex: WISTAR/MALE, Target Tissue: Type of Lesion: COLON: TUMORS, Dose [Carcinogen]: 7.4 MG/KG BW IN 0.9% SALINE 1/WK FOR 10 WK) is given as 8/17 (47%), 11/17 (65%), -38%, not significant and the “tumour outcome (control, treated, inhibition, significance)” value (Carcinogen: AZOXYMETHANE, 25843-45-2, Dose [Inhibitor]: 0, 30 MG/KG BW IN OLIVE OIL 1/2 D FOR 35 WK BEGINNING WITH START OF CARCINOGEN TREATMENT (STUDY DURATION: 35 WK), Route [Inhibitor]: SUBCUTANEOUS, Species: RAT, Strain/Sex: WISTAR/MALE, Target Tissue: Type of Lesion: COLON: TUMORS, Dose [Carcinogen]: 7.4 MG/KG BW IN 0.9% SALINE 1/WK FOR 10 WK) is given as 8/17 (47%), 9/20 (45%), 4%, not significant.

In the case of `COc1ccc2cc(CCC(C)=O)ccc2c1`, the “tumour outcome (control, treated, inhibition, significance)” value (Carcinogen: N-METHYL-N-NITROSOUREA, 684-93-5, Dose [Inhibitor]: 0, 0.03% IN DIET FOR 24 WK BEGINNING 1 WK POST CARCINOGEN DOSE (STUDY DURATION: 25 WK), Route [Inhibitor]: ORAL, Species: RAT, Strain/Sex: SPRAGUE-DAWLEY/FEMALE, Target Tissue: Type of Lesion: MAMMARY GLAND: TUMOR, Dose [Carcinogen]: 50 MG/KG ONCE) is given as 24/30 (80%), 13/31 (42%), 48%, p<0.005.

For `O=c1oc2ccccc2c(O)c1Cc1c(O)c2ccccc2oc1=O`, the “tumour outcome (control, treated, inhibition, significance)” value (Carcinogen: 17BETA-ESTRADIOL, 50-28-2, Dose [Inhibitor]: 0, 0.09% IN DIET BEGINNING 5 D POST CARCINOGEN DOSE (STUDY DURATION: 7.5 MO), Route [Inhibitor]: ORAL, Species: HAMSTER, Strain/Sex: SYRIAN/MALE, Target Tissue: Type of Lesion: KIDNEY: TUMOR, Dose [Carcinogen]: 25 MG PELLET REPLACED WITH A SECOND PELLET AFTER 4 MO) is listed as 13/13 (100%), 7/12 (58%), 42%, p<0.05.
